Where “and” joins values, the source holds several entries; their conditions need not be identical. Identical values can stand only once. Toxic doses and inconclusive results are not listed. Cut-off read from the data, not from the text of the source: active = T/C of 150% or more; inactive = T/C below 125%.
Tested on: L1210 leukemia ip in BDF1 mice, survival T/C
Assay: NCI In Vivo Anticancer Drug Screen. Data for tumor model L1210 Leukemia (intraperitoneal) in B6D2F1 (BDF1) mice
Settings: endpoint: mean survival time, higher = longer survival
How it was run: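 Value reflects the ratio of survival in compound-treated mice to survival in vehicle-treated controls, with both groups carrying the same transplanted tumor.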

Measured: T/C

CC(=O)OCC1OC(n2ncc(=O)[nH]c2=O)C(OC(C)=O)C1OC(C)=O (centres undefined)
inactive: dose: 5.3 mg/kg/injection, schedule: Q01DX Z (oral), vehicle: carboxymethylcellulose (CMC) 122 % of control | dose: 8.0 mg/kg/injection, schedule: Q01DX Z (oral), vehicle: carboxymethylcellulose (CMC) 119 % of control | dose: 8.0 mg/kg/injection, schedule: Q03HX024 (ip), vehicle: other 104 % of control | dose: 8.0 mg/kg/injection, schedule: Q03HX024 (oral), vehicle: other 117 % of control | dose: 8.8 mg/kg/injection, schedule: Q01DX Z (ip), vehicle: carboxymethylcellulose (CMC) 114 % of control | dose: 10.0 mg/kg/injection, schedule: Q01DX Z (im), vehicle: carboxymethylcellulose (CMC) 121 % of control | dose: 11.66 mg/kg/injection, schedule: Q#B X Z (ip), vehicle: carboxymethylcellulose (CMC) 111 % of control | dose: 13.0 mg/kg/injection, schedule: Q01DX Z (ip), vehicle: carboxymethylcellulose (CMC) 118 % of control | dose: 15.0 mg/kg/injection, schedule: Q01DX Z (im), vehicle: carboxymethylcellulose (CMC) 122 % of control | dose: 15.0 mg/kg/injection, schedule: Q01DX Z (sc), vehicle: carboxymethylcellulose (CMC) 116 % of control | dose: 16.0 mg/kg/injection, schedule: Q03HX008 (ip), vehicle: other 103 % of control | dose: 16.0 mg/kg/injection, schedule: Q03HX016 (ip), vehicle: other 105 % of control | dose: 18.33 mg/kg/injection, schedule: Q#B X Z (ip), vehicle: carboxymethylcellulose (CMC) 113 % of control | dose: 20.0 mg/kg/injection, schedule: Q01DX Z (ip), vehicle: carboxymethylcellulose (CMC) 120 % of control | dose: 23.0 mg/kg/injection, schedule: Q01DX Z (im), vehicle: carboxymethylcellulose (CMC) 121 % of control | dose: 26.66 mg/kg/injection, schedule: Q#B X Z (ip), vehicle: carboxymethylcellulose (CMC) 116 % of control | dose: 31.0 mg/kg/injection, schedule: Q01DX Z (ip), vehicle: carboxymethylcellulose (CMC) 120 % of control | dose: 32.0 mg/kg/injection, schedule: Q03HX008 (ip), vehicle: other 102 % of control | dose: 32.0 mg/kg/injection, schedule: Q03HX016 (ip), vehicle: other 103 % of control | dose: 32.0 mg/kg/injection, schedule: Q03HX024 (ip), vehicle: other 118 % of control | dose: 32.0 mg/kg/injection, schedule: Q03HX024 (oral), vehicle: other 122 % of control | dose: 61.66 mg/kg/injection, schedule: Q#B X Z (ip), vehicle: carboxymethylcellulose (CMC) 120 % of control | dose: 64.0 mg/kg/injection, schedule: Q03HX008 (ip), vehicle: other 108 % of control | dose: 64.0 mg/kg/injection, schedule: Q03HX016 (ip), vehicle: other 103 % of control | dose: 64.0 mg/kg/injection, schedule: Q04DX003 (ip), vehicle: other 103 % of control | dose: 64.0 mg/kg/injection, schedule: Q04DX003 (oral), vehicle: other 109 % of control | dose: 85.0 mg/kg/injection, schedule: Q01DX Z (im), vehicle: carboxymethylcellulose (CMC) 122 % of control | dose: 93.33 mg/kg/injection, schedule: Q#B X Z (ip), vehicle: carboxymethylcellulose (CMC) 124 % of control and 86 % of control | dose: 125.0 mg/kg/injection, schedule: Q01DX001 (ip), vehicle: carboxymethylcellulose (CMC) 102 % of control and 107 % of control | dose: 125.0 mg/kg/injection, schedule: Q01DX006 (iv), vehicle: carboxymethylcellulose (CMC) 118 % of control | dose: 125.0 mg/kg/injection, schedule: Q03DX Z (ip), vehicle: carboxymethylcellulose (CMC) 121 % of control | dose: 125.0 mg/kg/injection, schedule: Q07DX Z (ip), vehicle: carboxymethylcellulose (CMC) 110 % of control | dose: 128.0 mg/kg/injection, schedule: Q01DX001 (ip), vehicle: other 105 % of control | dose: 128.0 mg/kg/injection, schedule: Q03HX008 (ip), vehicle: other 109 % of control | dose: 128.0 mg/kg/injection, schedule: Q03HX016 (ip), vehicle: other 119 % of control | dose: 128.0 mg/kg/injection, schedule: Q04DX003 (ip), vehicle: other 110 % of control | dose: 128.0 mg/kg/injection, schedule: Q04DX003 (oral), vehicle: other 101 % of control | dose: 128.0 mg/kg/injection, schedule: Q08DX002 (ip), vehicle: other 101 % of control | dose: 185.0 mg/kg/injection, schedule: Q01DX Z (sc), vehicle: carboxymethylcellulose (CMC) 121 % of control | dose: 250.0 mg/kg/injection, schedule: Q01DX001 (ip), vehicle: carboxymethylcellulose (CMC) 100 % of control and 103 % of control | dose: 250.0 mg/kg/injection, schedule: Q03DX Z (ip), vehicle: carboxymethylcellulose (CMC) 122 % of control | dose: 250.0 mg/kg/injection, schedule: Q07DX Z (ip), vehicle: carboxymethylcellulose (CMC) 115 % of control | dose: 256.0 mg/kg/injection, schedule: Q01DX001 (ip), vehicle: other 97 % of control | dose: 256.0 mg/kg/injection, schedule: Q04DX003 (ip), vehicle: other 106 % of control | dose: 256.0 mg/kg/injection, schedule: Q04DX003 (oral), vehicle: other 120 % of control | dose: 256.0 mg/kg/injection, schedule: Q08DX002 (ip), vehicle: other 96 % of control | dose: 420.0 mg/kg/injection, schedule: Q01DX Z (sc), vehicle: carboxymethylcellulose (CMC) 108 % of control | dose: 450.0 mg/kg/injection, schedule: Q01DX010 (ip), vehicle: saline 116 % of control | dose: 500.0 mg/kg/injection, schedule: Q01DX001 (ip), vehicle: carboxymethylcellulose (CMC) 102 % of control and 113 % of control | dose: 500.0 mg/kg/injection, schedule: Q03DX Z (ip), vehicle: carboxymethylcellulose (CMC) 121 % of control | dose: 500.0 mg/kg/injection, schedule: Q07DX Z (ip), vehicle: carboxymethylcellulose (CMC) 113 % of control | dose: 512.0 mg/kg/injection, schedule: Q01DX001 (ip), vehicle: other 104 % of control | dose: 512.0 mg/kg/injection, schedule: Q04DX003 (ip), vehicle: other 106 % of control | dose: 512.0 mg/kg/injection, schedule: Q08DX002 (ip), vehicle: other 105 % of control | dose: 675.0 mg/kg/injection, schedule: Q01DX010 (ip), vehicle: saline 93 % of control | dose: 1000.0 mg/kg/injection, schedule: Q01DX001 (ip), vehicle: carboxymethylcellulose (CMC) 97 % of control and 122 % of control | dose: 1000.0 mg/kg/injection, schedule: Q01DX Z (ip), vehicle: carboxymethylcellulose (CMC) 102 % of control | dose: 1000.0 mg/kg/injection, schedule: Q01DX Z (oral), vehicle: carboxymethylcellulose (CMC) 86 % of control | dose: 1000.0 mg/kg/injection, schedule: Q01DX Z (sc), vehicle: carboxymethylcellulose (CMC) 117 % of control | dose: 1000.0 mg/kg/injection, schedule: Q07DX Z (ip), vehicle: carboxymethylcellulose (CMC) 113 % of control | dose: 1014.0 mg/kg/injection, schedule: Q01DX010 (ip), vehicle: saline 100 % of control | dose: 1024.0 mg/kg/injection, schedule: Q01DX001 (ip), vehicle: other 101 % of control | dose: 1024.0 mg/kg/injection, schedule: Q08DX002 (ip), vehicle: other 106 % of control
active: dose: 62.0 mg/kg/injection, schedule: Q01DX Z (oral), vehicle: carboxymethylcellulose (CMC) 157 % of control | dose: 166.66 mg/kg/injection, schedule: Q#B X Z (ip), vehicle: carboxymethylcellulose (CMC) 157 % of control | dose: 250.0 mg/kg/injection, schedule: Q01DX Z (im), vehicle: carboxymethylcellulose (CMC) 161 % of control | dose: 280.0 mg/kg/injection, schedule: Q01DX Z (sc), vehicle: carboxymethylcellulose (CMC) 151 % of control | dose: 500.0 mg/kg/injection, schedule: Q01DX Z (im), vehicle: carboxymethylcellulose (CMC) 150 % of control | dose: 500.0 mg/kg/injection, schedule: Q01DX Z (sc), vehicle: carboxymethylcellulose (CMC) 154 % of control | dose: 512.0 mg/kg/injection, schedule: Q01DX009 (oral), vehicle: other 151 % of control | dose: 1000.0 mg/kg/injection, schedule: Q01DX Z (im), vehicle: carboxymethylcellulose (CMC) 158 % of control

Cc1c(F)cccc1NCC(=O)NN
inactive: dose: 100.0 mg/kg/injection, schedule: Q04DX002 (ip), vehicle: Klucel (hydroxypropylcellulose) (HPC) 101 % of control | dose: 200.0 mg/kg/injection, schedule: Q04DX002 (ip), vehicle: Klucel (hydroxypropylcellulose) (HPC) 115 % of control

COC1(OC)C2CCC1C1OC12 (centres undefined)
inactive: dose: 100.0 mg/kg/injection, schedule: Q04DX002 (ip), vehicle: saline 107 % of control | dose: 200.0 mg/kg/injection, schedule: Q04DX002 (ip), vehicle: saline 97 % of control | dose: 400.0 mg/kg/injection, schedule: Q04DX002 (ip), vehicle: saline 97 % of control

CSc1ccc(NC(=O)Nc2cc(C)c(C)cc2C)cc1
inactive: dose: 100.0 mg/kg/injection, schedule: Q01DX009 (ip), vehicle: other 86 % of control | dose: 200.0 mg/kg/injection, schedule: Q01DX009 (ip), vehicle: other 93 % of control and 90 % of control | dose: 400.0 mg/kg/injection, schedule: Q01DX009 (ip), vehicle: other 93 % of control and 106 % of control

From PubChem BioAssay AID248 (DTP/NCI, 2004)
